Reference: PubChem BioAssay (NCI)
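Tested at 5 concentrations; 48 h exposure; 96-well plates; endpoints linearly interpolated, else capped at highest concentration. GI50 is the concentration that inhibits growth by half. TGI denotes the concentration required for complete inhibition of growth.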

How the values were obtained:
Test in all cases: NCI anticancer screen, dose series, 48 h
786-0 renal = tested on: 786-0 renal
A498 renal = tested on: A498 renal
CCRF-CEM leukemia = tested on: CCRF-CEM leukemia
M14 melanoma = tested on: M14 melanoma
OVCAR-8 ovarian = tested on: OVCAR-8 ovarian
RXF 393 renal = tested on: RXF 393 renal
U251 CNS = tested on: U251 CNS
MCF7 breast = tested on: MCF7 breast
NCI/ADR-RES ovarian = tested on: NCI/ADR-RES ovarian
T-47D breast = tested on: T-47D breast

SMILES	TGI (786-0 renal)	TGI (A498 renal)	TGI (CCRF-CEM leukemia)	TGI (M14 melanoma)	TGI (OVCAR-8 ovarian)	TGI (RXF 393 renal)	TGI (U251 CNS)	GI50 (786-0 renal)	GI50 (A498 renal)	GI50 (M14 melanoma)	GI50 (MCF7 breast)	TGI (MCF7 breast)	GI50 (NCI/ADR-RES ovarian)	TGI (NCI/ADR-RES ovarian)	GI50 (OVCAR-8 ovarian)	GI50 (RXF 393 renal)	GI50 (T-47D breast)	TGI (T-47D breast)	GI50 (U251 CNS)	GI50 (CCRF-CEM leukemia)
O=C(O)c1ccc(C2C3C=CC(C3)C2[N+](=O)[O-])cc1 (stereo not drawn)	> 100 µM	> 100 µM	> 100 µM	> 100 µM	> 100 µM	> 100 µM	> 100 µM	–	–	–	–	–	–	–	–	–	–	–	–	–
CC1CC2(CCC1OCc1ccccc1)OCCO2 (stereo not drawn)	> 100 µM	> 100 µM	> 100 µM	> 100 µM	> 100 µM	> 100 µM	> 100 µM	–	–	–	–	–	–	–	–	–	–	–	–	–
C=C1C(=O)O[C@H]2C[C@@H]1CCC1(C)OC1CC/C(C)=C/CC[C@H]2C (stereo partly drawn)	33.1 µM	33.6 µM	–	31.9 µM	72.2 µM	43.1 µM	31.5 µM	18.4 µM	17.7 µM	18 µM	18 µM	36.6 µM	18.5 µM	35.4 µM	26.8 µM	21.4 µM	16.9 µM	37.6 µM	17.7 µM	–
N#C[C@H]1Nc2ccccc2[C@@H](O)C1O (stereo partly drawn)	> 100 µM	–	> 100 µM	> 100 µM	> 100 µM	> 100 µM	> 100 µM	–	–	–	–	> 100 µM	–	> 100 µM	–	–	–	> 100 µM	–	–
CN(CCN(C)C(=O)CCOS(C)(=O)=O)C(=O)CCOS(C)(=O)=O	> 100 µM	> 100 µM	> 100 µM	> 100 µM	> 100 µM	–	> 100 µM	–	–	–	–	–	–	–	–	–	–	–	–	–
OCc1ccc(Oc2c3ccccc3nc3occc23)cc1	> 100 µM	–	> 100 µM	57.6 µM	> 100 µM	23.2 µM	56 µM	33.9 µM	–	23.8 µM	16.6 µM	39.5 µM	20.2 µM	49 µM	28.3 µM	4.7 µM	6.94 µM	62.4 µM	27 µM	31.3 µM
COc1ccccc1NC(=O)CC(=O)NNCC(=O)Nc1nnc(-c2ccccc2)o1	> 100 µM	> 100 µM	–	> 100 µM	> 100 µM	–	> 100 µM	–	–	–	–	–	–	–	–	–	–	–	–	–
Cn1c(=O)oc2cc(C3CCC(=O)N3Cc3ccc(Cl)cc3)ccc21 (stereo not drawn)	> 100 µM	–	> 100 µM	> 100 µM	> 100 µM	> 100 µM	> 100 µM	–	–	–	–	–	–	–	–	–	–	–	–	–
COc1ccc2c(c1)CCCC1C3=NCCC3(C)CSC21 (stereo not drawn)	> 100 µM	–	> 100 µM	> 100 µM	> 100 µM	> 100 µM	> 100 µM	–	–	–	–	–	–	–	–	–	–	–	–	–
NC(=O)c1c2c(cc3c(=O)c4ccccc4[nH]c13)CCCC2	> 100 µM	> 100 µM	98.7 µM	> 100 µM	> 100 µM	> 100 µM	> 100 µM	–	–	–	–	–	–	–	–	–	–	–	–	–
CCOC(=O)c1cnc2cc3cccccc3n2c1=O	> 100 µM	> 100 µM	> 100 µM	> 100 µM	> 100 µM	> 100 µM	> 100 µM	–	–	–	–	–	–	–	–	–	–	–	–	–
CCC[CH2][Sn]1([CH2]CCC)[O]C(=O)CN=Cc2ccccc2[O]1	1.73 µM	–	–	1.37 µM	1.39 µM	0.306 µM	1.09 µM	0.517 µM	–	0.368 µM	–	–	–	–	0.346 µM	0.144 µM	–	–	0.305 µM	–
NC(=O)NCCSC1CCCCC1O (stereo not drawn)	> 100 µM	> 100 µM	–	> 100 µM	> 100 µM	> 100 µM	> 100 µM	–	–	–	–	> 100 µM	–	> 100 µM	–	–	–	> 100 µM	–	–
O=CN1CCN(C=S)CC1	> 100 µM	> 100 µM	> 100 µM	> 100 µM	> 100 µM	> 100 µM	> 100 µM	–	–	–	–	–	–	–	–	–	–	–	–	–
COc1cc(OC)cc(-c2cncn2-c2ccc(-c3nc4cc(OC)cc(OC)c4s3)cc2)c1	> 100 µM	> 100 µM	–	–	> 100 µM	> 100 µM	> 100 µM	7.6 µM	3.15 µM	–	3.82 µM	> 100 µM	2.58 µM	> 100 µM	14.5 µM	6.58 µM	5.77 µM	> 100 µM	4.76 µM	–
CO/N=C(/COc1c(-c2ccccc2)oc2ccccc2c1=O)c1ccc(F)cc1	64 µM	> 100 µM	67.9 µM	> 100 µM	> 100 µM	> 100 µM	> 100 µM	25.1 µM	61.2 µM	30.6 µM	–	–	86.4 µM	> 100 µM	53 µM	76.6 µM	> 100 µM	> 100 µM	33.9 µM	12.6 µM
COc1ccc(-n2c3c(c4c(CN(C)C)c(O)c(C)cc42)CCc2ccccc2C3=O)cc1	> 100 µM	> 100 µM	–	97 µM	> 100 µM	75.6 µM	> 100 µM	29.7 µM	60 µM	26.9 µM	> 100 µM	> 100 µM	17.9 µM	45.2 µM	31.6 µM	16.1 µM	> 100 µM	> 100 µM	28.3 µM	–
CCOC(=O)C(=O)Nc1ccc(Cl)c(C(F)(F)F)c1	> 100 µM	–	> 100 µM	> 100 µM	> 100 µM	> 100 µM	> 100 µM	–	–	–	–	–	–	–	–	–	–	–	–	–
COc1ccc(C(=O)CC(c2ccc(OC)c(OC)c2)c2c(O)c3ccccc3oc2=O)cc1OC (stereo not drawn)	> 100 µM	–	> 100 µM	> 100 µM	> 100 µM	> 100 µM	> 100 µM	–	–	–	–	> 100 µM	–	> 100 µM	–	–	–	> 100 µM	–	–
NC1=NC(c2ccc(F)cc2)C2=C(N1)c1ccc3ccccc3c1OCC2 (stereo not drawn)	> 100 µM	> 100 µM	–	> 100 µM	> 100 µM	> 100 µM	> 100 µM	79.7 µM	10.8 µM	> 100 µM	4.69 µM	> 100 µM	43.2 µM	> 100 µM	14.5 µM	18.7 µM	13.5 µM	> 100 µM	8.49 µM	–
CC(=O)NC1=C(NCc2ccc(Cl)cc2)C(=O)c2ccccc2C1=O	15.7 µM	–	32.3 µM	13.5 µM	14.1 µM	10.5 µM	24.2 µM	–	–	–	–	–	–	–	–	–	–	–	–	–
